The record followed here is patent US8530648B2, “Diaza-spiro[5.5]undecanes” (Novartis AG, priority 2009, dated 2013).

Assay [1] addresses T1, hOx1R (Homo sapiens (Human), UniProt O43613). Kind of assay: Calcium accumulation in cells (FLIPR), hOx1R. To be noted: inhibition of orexin A induced calcium accumulation, Cheng and Prusoff correction. Format: cell-based. In outline:
(§1)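 Cells expressing human orexin 1 or 2 receptor, serum-deprived overnight, loaded with Fluo-4-AM (2 μM) plus 0.1 mM probenecid, pH 7.4 HEPES buffer with 1% BSA.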

For assay [2], the target named is T2, hOx2R (Homo sapiens (Human), UniProt O43614). Put plainly: Radioligand binding assay, [3H]-SB649868, hOx2R. To be noted: radioligand [3H]-SB649868, competition. How it is done:
(§2) For crude cell membrane preparations, cells (CHO, Chinese hamster ovary or HEK, human embryonic kidney) expressing human orexin 1 or human orexin 2 receptors, were washed with HEPES (10 mM, pH 7.5), scraped off the culture plates with the same buffer, and centrifuged at 4° C. for 5 min at 2500×g. The cell pellet was either stored at −80° C. or used directly. Before the experiments, cell membranes were re-suspended in binding assay buffer (10 mM HEPES, 0.5% (w/v) bovine serum albumin, pH 7.5) by homogenisation with a Polytron homogeniser at 50 Hz for 20 s. Cell membranes were also used as made available by commercial providers.
(§3) Bound radioactivity was measured, and data were analysed with the program XLFIT or Graphpad Prism. Protein concentration was determined according to the Bradford/BioRad Protein Assay Kit.
(§4) In competition experiments, cell homogenates (150 μl) were incubated in assay buffer (10 mM HEPES, pH 7.5, 0.5% (w/v) bovine serum albumin, 5 mM MgCl2, 1 mM CaCl2, and tween 0.05%) for 1 h at room temperature with about 1 nM of the radioligand [^3H]-SB649868, 66 Ci/mmole, 50 μl), and with various concentrations of compounds of the invention (50 μl) in triplicates; non-specific binding was determined in the presence of almorexant (10 μM).

The target of assay [3] is T2, hOx2R. Kind of assay: Calcium accumulation in cells (FLIPR), hOx2R. The assay is classed as cell-based. To be noted: inhibition of orexin A induced calcium accumulation, Cheng and Prusoff correction. In outline: as §1
Assay [4] concerns the target T1, hOx1R. Put plainly: Radioligand binding assay, [3H]-SB649868, hOx1R. To be noted: radioligand [3H]-SB649868, competition. How it is done: as §2, §3, §4

A value given as a limit tells only on which side of the number the result lay.

T2 sequence (O43614 whole entry): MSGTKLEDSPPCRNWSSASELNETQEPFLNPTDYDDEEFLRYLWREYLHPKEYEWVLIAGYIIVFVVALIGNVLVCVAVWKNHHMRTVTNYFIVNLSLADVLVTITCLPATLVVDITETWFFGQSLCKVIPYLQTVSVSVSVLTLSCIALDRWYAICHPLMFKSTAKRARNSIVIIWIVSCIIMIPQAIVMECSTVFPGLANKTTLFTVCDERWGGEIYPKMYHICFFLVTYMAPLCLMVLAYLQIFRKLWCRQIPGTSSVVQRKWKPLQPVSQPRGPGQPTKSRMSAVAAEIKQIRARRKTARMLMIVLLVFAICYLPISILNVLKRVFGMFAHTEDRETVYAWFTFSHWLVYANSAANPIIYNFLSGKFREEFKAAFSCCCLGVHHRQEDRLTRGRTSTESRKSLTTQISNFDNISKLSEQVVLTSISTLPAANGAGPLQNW
T1 sequence (O43613 whole entry): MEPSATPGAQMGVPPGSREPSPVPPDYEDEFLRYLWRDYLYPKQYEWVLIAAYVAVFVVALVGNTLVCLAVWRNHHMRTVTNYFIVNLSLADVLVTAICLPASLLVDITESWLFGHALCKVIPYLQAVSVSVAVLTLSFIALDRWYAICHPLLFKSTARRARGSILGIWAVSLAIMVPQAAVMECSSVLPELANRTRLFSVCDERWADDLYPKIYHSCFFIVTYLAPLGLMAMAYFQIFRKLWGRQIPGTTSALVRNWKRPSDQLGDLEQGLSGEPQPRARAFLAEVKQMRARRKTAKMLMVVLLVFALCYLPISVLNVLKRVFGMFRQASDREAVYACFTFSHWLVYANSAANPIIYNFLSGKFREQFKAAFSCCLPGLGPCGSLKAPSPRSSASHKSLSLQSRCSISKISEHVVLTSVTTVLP

The term Ki denotes a measure of affinity in units of concentration, obtained from inhibition or displacement. Broadly, the Kd is the equilibrium constant for the complex coming apart. As to `O=C1N(Cc2n[nH]c3ccccc23)CCCC12CCN(c1cnc3ccccc3n1)CC2` [Example 129, 2-((1H-indazol-3-yl)methyl)-9-(quinoxalin-2-yl)-2,9-diazaspiro[5.5]undecan-1-one], the Ki in assay [1] was determined as 126 nM; in assay [3] it was 9 nM. The values for the equilibrium dissociation constant (Kd) in assay [2] and in assay [4] were 25 nM and 105 nM, respectively.

Turning to `O=C1N(Cc2cccc3nsnc23)CCCC12CCN(c1cnc3ccccc3n1)CC2` [Example 113, 2-(benzo[c][1,2,5]thiadiazol-4-ylmethyl)-9-(quinoxalin-2-yl)-2,9-diazaspiro[5.5]undecan-1-one], the Ki in assay [1] stood at 1360 nM; in assay [3], 82 nM. The equilibrium dissociation constant (Kd) in assay [2] was determined as 630 nM; in assay [4] it was 3500 nM.

As to `O=C1CCCC2(CCN(c3cnc4ccccc4n3)CC2)N1Cc1c[nH]c2ccccc12` [Example 43, 1-((1H-indol-3-yl)methyl)-9-(quinoxalin-2-yl)-1,9-diazaspiro[5.5]undecan-2-one], the inhibition constant Ki worked out at 236 nM in assay [1] and 47 nM in assay [3]. For the same compound, the dissociation constant Kd in assay [2] worked out at 196 nM; in assay [4] it was 205 nM.

With `Cc1noc(-c2ccccc2CN2CCCC3(CCN(c4cnc5ccccc5n4)CC3)C2=O)n1` [Example 39, 2-(2-(3-methyl-1,2,4-oxadiazol-5-yl)benzyl)-9-(quinoxalin-2-yl)-2,9-diazaspiro[5.5]undecan-1-one], the Ki stood at 1420 nM in assay [1] and 25 nM in assay [3]. The Kd turned out to be 243 nM in assay [2] and 2770 nM in assay [4].

In the case of `O=C1N(Cc2c[nH]c3ccccc23)CCCC12CCN(c1ccc3ccccc3n1)CC2` [Example 160, 2-((1H-indol-3-yl)methyl)-9-(quinolin-2-yl)-2,9-diazaspiro[5.5]undecan-1-one], the inhibitory constant (Ki) in assay [1] is 571 nM; in assay [3] it was 68 nM. Also, the Kd in assay [2] was found to be 111 nM; in assay [4] it was 806 nM.

Take `Cc1nc(CN2CCCC3(CCN(c4cnc5ccccc5n4)CC3)C2=O)c(-c2cccc(F)c2)s1` [Example 73, 2-((5-(3-fluorophenyl)-2-methylthiazol-4-yl)methyl)-9-(quinoxalin-2-yl)-2,9-diazaspiro[5.5]undecan-1-one]: the inhibition constant (Ki) in assay [1] turned out to be 438 nM; in assay [3], 55 nM. The Kd in assay [2] turned out to be 219 nM; in assay [4] it was 1150 nM.

For `Cc1cc(N2CCC3(CCCN(Cc4c[nH]c5ccccc45)C3=O)CC2)nc2ccccc12` [Example 164, 2-((1H-indol-3-yl)methyl)-9-(4-methylquinolin-2-yl)-2,9-diazaspiro[5.5]undecan-1-one], the inhibition constant Ki in assay [1] amounted to 115 nM; in assay [3] it was 14 nM. Moreover, the results for the equilibrium dissociation constant (Kd) in assay [2] and in assay [4] were 12 nM and 90 nM, respectively.

As to `O=C1N(Cc2cccc(-c3ncccn3)c2)CCCC12CCN(c1cnc3ccccc3n1)CC2` [Example 61, 2-(3-(pyrimidin-2-yl)benzyl)-9-(quinoxalin-2-yl)-2,9-diazaspiro[5.5]undecan-1-one], the Ki in assay [1] was determined as 373 nM; in assay [3], 62 nM. In addition, the Kd in assay [2] amounted to 395 nM; in assay [4], 2050 nM.

With `Cn1cc(CN2CCCC3(CCN(c4cnc5ccccc5n4)CC3)C2=O)c2ccccc21` [Example 130, 2-((1-methyl-1H-indol-3-yl)methyl)-9-(quinoxalin-2-yl)-2,9-diazaspiro[5.5]undecan-1-one], the results for the Ki in assay [1] and in assay [3] were 422 nM and 29 nM, respectively. Moreover, the equilibrium dissociation constant (Kd) in assay [2] stood at 134 nM; in assay [4], 1280 nM.

Regarding `O=C1N(Cc2cccc(-n3cccn3)n2)CCCC12CCN(c1cnc3ccccc3n1)CC2` [Example 83, 2-((6-(1H-pyrazol-1-yl)pyridin-2-yl)methyl)-9-(quinoxalin-2-yl)-2,9-diazaspiro[5.5]undecan-1-one], the inhibition constant Ki in assay [1] amounted to 1730 nM; in assay [3] it was 80 nM. In addition, the equilibrium dissociation constant (Kd) in assay [2] came out at 364 nM; in assay [4], 2760 nM.

`O=C1N(Cc2c[nH]c3ccccc23)CCCC12CCN(c1nc3ccccc3[nH]1)CC2` [Example 152, 2-((1H-indol-3-yl)methyl)-9-(1H-benzo[d]imidazol-2-yl)-2,9-diazaspiro[5.5]undecan-1-one]: the Ki in assay [1] was 1560 nM; in assay [3], 69 nM. The dissociation constant (Kd) in assay [2] is 84 nM; in assay [4], 939 nM.

As to `O=C1N(Cc2cccc(-n3cccn3)c2)CCCC12CCN(c1cnc3ccccc3n1)CC2` [Example 60, 2-(3-(1H-pyrazol-1-yl)benzyl)-9-(quinoxalin-2-yl)-2,9-diazaspiro[5.5]undecan-1-one], the inhibition constant (Ki) in assay [1] came out at 391 nM; in assay [3], 49 nM. The Kd turned out to be 191 nM in assay [2] and 728 nM in assay [4].

Turning to `Cc1cnc(-c2cccc(CN3CCCC4(CCN(c5cnc6ccccc6n5)CC4)C3=O)c2)o1` [Example 147, 2-(3-(5-methyloxazol-2-yl)benzyl)-9-(quinoxalin-2-yl)-2,9-diazaspiro[5.5]undecan-1-one], the Ki was 94 nM in assay [1] and 7 nM in assay [3]. Besides, the figures for the Kd in assay [2] and in assay [4] were 63 nM and 228 nM, respectively.

For the compound `O=C1N(Cc2c[nH]c3ccccc23)CCCC12CCN(c1cc3nccnc3cn1)CC2` [Example 167, 2-((1H-indol-3-yl)methyl)-9-(pyrido[4,3-b]pyrazin-7-yl)-2,9-diazaspiro[5.5]undecan-1-one], the inhibition constant (Ki) in assay [1] turned out to be 665 nM; in assay [3], 81 nM. The Kd in assay [2] stood at 152 nM; in assay [4] it was 1670 nM.

As for `O=C1N(Cc2ncoc2-c2ccccc2)CCCC12CCN(c1cnc3ccccc3n1)CC2` [Example 95, 2-((5-phenyloxazol-4-yl)methyl)-9-(quinoxalin-2-yl)-2,9-diazaspiro[5.5]undecan-1-one], the figures for the Ki in assay [1] and in assay [3] were 223 nM and 8 nM, respectively. Also, the Kd in assay [2] came to 36 nM; in assay [4], 429 nM.

As to `Cc1ccc(-n2nccn2)cc1CN1CCCC2(CCN(c3cnc4ccccc4n3)CC2)C1=O` [Example 128, 2-(2-methyl-5-(2H-1,2,3-triazol-2-yl)benzyl)-9-(quinoxalin-2-yl)-2,9-diazaspiro[5.5]undecan-1-one], the figures for the Ki in assay [1] and in assay [3] were 967 nM and 73 nM, respectively. Besides, the figures for the Kd in assay [2] and in assay [4] were 160 nM and more than 10000 nM, respectively.

Consider `O=C1N(Cc2c[nH]c3ccccc23)CCCC12CCN(c1cnc3ccccc3c1)CC2` [Example 48, 2-((1H-indol-3-yl)methyl)-9-(quinolin-3-yl)-2,9-diazaspiro[5.5]undecan-1-one], for which the Ki in assay [1] amounted to 1040 nM; in assay [3], 32 nM. The results for the dissociation constant (Kd) in assay [2] and in assay [4] were 147 nM and 1840 nM, respectively.

As to `Cc1ccc(-n2nccn2)c(CN2CCCC3(CCN(c4cnc5ccccc5n4)CC3)C2=O)c1` [Example 125, 2-(5-methyl-2-(2H-1,2,3-triazol-2-yl)benzyl)-9-(quinoxalin-2-yl)-2,9-diazaspiro[5.5]undecan-1-one], the results for the Ki in assay [1] and in assay [3] were 2290 nM and 137 nM, respectively. In addition, the Kd in assay [2] was determined as 324 nM; in assay [4], 4990 nM.

On to `O=C1N(Cc2cccc(-n3nccn3)c2)CCCC12CCN(c1cnc3ccccc3n1)CC2` [Example 47, 2-(3-(2H-1,2,3-triazol-2-yl)benzyl)-9-(quinoxalin-2-yl)-2,9-diazaspiro[5.5]undecan-1-one], for which the Ki in assay [1] amounted to 159 nM; in assay [3], 13 nM. Also, the Kd was 34 nM in assay [2] and 318 nM in assay [4].

Take `Cc1nc(-c2cccc(CN3CCCC4(CCN(c5cnc6ccccc6n5)CC4)C3=O)c2)no1` [Example 98, 2-(3-(5-methyl-1,2,4-oxadiazol-3-yl)benzyl)-9-(quinoxalin-2-yl)-2,9-diazaspiro[5.5]undecan-1-one]: the figures for the inhibition constant Ki in assay [1] and in assay [3] were 425 nM and 50 nM, respectively. For the same compound, the Kd in assay [2] turned out to be 223 nM; in assay [4], 980 nM.

Turning to `O=C1N(Cc2ccnc(-n3cccn3)c2)CCCC12CCN(c1cnc3ccccc3n1)CC2` [Example 63, 2-((2-(1H-pyrazol-1-yl)pyridin-4-yl)methyl)-9-(quinoxalin-2-yl)-2,9-diazaspiro[5.5]undecan-1-one], the inhibitory constant (Ki) in assay [1] was determined as 900 nM; in assay [3], 83 nM. Further, the dissociation constant Kd in assay [2] was determined as 903 nM; in assay [4], 3820 nM.

Turning to `O=C1N(Cc2cccc(-c3cnccn3)c2)CCCC12CCN(c1cnc3ccccc3n1)CC2` [Example 65, 2-(3-(pyrazin-2-yl)benzyl)-9-(quinoxalin-2-yl)-2,9-diazaspiro[5.5]undecan-1-one], the results for the Ki in assay [1] and in assay [3] were 357 nM and 23 nM, respectively. Also, the Kd in assay [2] worked out at 623 nM; in assay [4] it was 1860 nM.

Consider `O=C1N(Cc2c[nH]c3ccccc23)CCCC12CCN(c1nccc3occc13)CC2` [Example 156, 2-((1H-indol-3-yl)methyl)-9-(furo[3,2-c]pyridin-4-yl)-2,9-diazaspiro[5.5]undecan-1-one], for which the results for the inhibitory constant (Ki) in assay [1] and in assay [3] were 623 nM and 23 nM, respectively. The Kd in assay [2] came to 139 nM; in assay [4], 1020 nM.
